GI50 data for 12 compounds are collected here from patent publication US20260109707A1, “HETEROBIFUNCTIONAL COMPOUNDS AND METHODS OF TREATING DISEASE” (Halda Therapeutics OpCo. Inc., priority 2022, published 2026).

SMILES strings stand for the structures. Where only a bound is given, the exact number is not on record here.

In test [1] the test system is T-Rex 293 cell line SC cells lacking increased expression of progesterone receptor isoform B protein. The test is described as follows: Cellular growth inhibition assay, T-Rex 293 SC cells without doxycycline (CellTiter-Glo, 72 hours). Type of test: cell-based. To be noted: T-Rex 293 SC cells not exposed to doxycycline. On the procedure:
(§1) The following types of cells were prepared for this experiment: (i) a T-Rex 293 cell line having increased expression of progesterone receptor isoform B protein due to exposure to doxycycline and (ii) a T-Rex 293 cell line lacking increased expression of progesterone receptor isoform B protein. Ability of the test compounds to inhibit proliferation of the foregoing cell types was evaluated according to the procedures set forth below.
(§2) The doxycycline-inducible progesterone receptor isoform B protein expressing cell line was established using the following protocol: T-Rex 293 cells were purchased from Invitrogen (Cat #R71007) and transfected using Lipofectamine 2000 with the wild-type progesterone receptor B protein sequence cloned into the pcDNA4/TO vector. Transfected cells were selected using 400 μg/mL Zeocin (Invitrogen Cat #R25001). Following selection, single clones were raised and maintained in Dulbecco's Modified Eagle Medium (DMEM) supplemented with 10% w/w Tetracycline-free fetal bovine serum (FBS) and 250 μg/mL Zeocin. Clones were analyzed for expression of progesterone receptor isoform B protein in the presence and absence of 10 ng/mL doxycycline (Sigma Cat #D9891), and a single doxycycline-inducible clone (hereinafter “SC”) was selected for use in downstream assays.
(§3) The SC cells were seeded on poly-D-lysine coated, black clear-bottom 384-well plates at 2500/well, in 25 μL Phenol Red Free Dulbecco's Modified Eagle Medium (DMEM) supplemented with 10% w/w charcoal-dextran treated fetal bovine serum (FBS) and 1% w/w pen-strep, with or without 10 ng/mL doxycycline. Pen-Strep is a commercially available mixture of penicillin G and streptomycin, which is used in mammalian cell culture media to prevent bacterial contamination. Phenol Red Free Dulbecco's Modified Eagle Medium (DMEM) supplemented with 10% w/w charcoal-dextran treated fetal bovine serum (FBS) and 1% w/w pen-strep, with or without 10 ng/mL doxycycline is herein referred to as Treatment Medium. Following seeding of cells in the plates, the plates were spun at 300×g for 30 seconds, then equilibrated to room temperature for 30 minutes, and then deposited in a humidified tissue culture incubator maintained at 37° C. with 5% CO2.
(§4) At 24 hours after seeding of the cells, dilutions of test compound were prepared in DMSO and dissolved in Treatment Medium, to achieve a final DMSO concentration of 0.5% w/w, thereby providing the Test Compound Solution. A 25 μL aliquot of the Test Compound Solution was added to cells in the well plates. An equal volume of a solution containing DMSO and Treatment Medium was used as a negative control. Following treatment of cells with Test Compound Solution or said equal volume of a solution containing DMSO and Treatment Medium, the plates were spun at 300×g for 30 seconds, and then left in an incubator for 72 hours.
(§5) At the end of the treatment duration, cell viability was quantified with CellTiter-Glo 2.0 reagent (Promega Cat #G9243). For this purpose, plates were equilibrated to room temperature for 30 minutes, and then 25 μL of CellTiter-Glo 2.0 reagent was added to cells in the plate wells. Plates were then agitated on a shaker for two minutes at 500 rpm and subsequently incubated at room temperature for 10 minutes. Following incubation, the plates were spun at 3000×g for 30 seconds, then sealed with an optical adhesive cover, and luminescence readings were measured with an EnVision Plate Reader (Perkin Elmer).
(§6) Data was normalized using zero luminescence for baseline. A four-parameter non-linear regression curve fit was applied to dose-response data in GraphPad Prism data analysis software to determine the half-maximal growth inhibitory concentration (GI50) for each test compound.
Background: ATP-based viability assays read luminescence as a measure of living cells.

Test [2] deals with T-Rex 293 cell line SC3 cells lacking increased expression of androgen receptor protein. The test can be described thus: Cellular growth inhibition assay, T-Rex 293 SC3 cells without doxycycline (CellTiter-Glo, 72 hours). Format: cell-based. To be noted: 72 h, T-Rex 293 cell line SC3 cells not exposed to doxycycline (lacking increased androgen receptor expression). Summed up: (§7)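 Doxycycline (10 ng/mL) was either included or omitted to toggle wild-type androgen receptor expression in SC3 cells, a T-Rex 293 clone, grown in stripped-serum, phenol red-free medium. After 72 hours with compound, viable cells were quantified by CellTiter-Glo 2.0.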

A further test has as its system VCaP cells. The test is described as follows: Cellular growth inhibition assay for VCaP cells (CellTiter-Glo, 72 hours). To be noted: Homo sapiens, VCaP, 72 h. Format: cell-based, human. In short, it runs like this: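 Luminescent viability signal after 72 h of compound exposure gave GI50 values by four-parameter nonlinear regression. Compounds were added in 0.5% DMSO to cells plated 24 h earlier at 5000/well in DMEM containing 10% FBS.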

For another test, the system named is T47D cells. The test can be described thus: Cellular growth inhibition assay for T47D cells (CellTiter-Glo, 72 hours). Format: cell-based, human. To be noted: Homo sapiens, T47D, 72 h, 72 hours treatment. In short, it runs like this:
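Luminescence from CellTiter-Glo 2.0 after 72 h of compound exposure gives the viability signal. Cells grew in insulin-supplemented (0.2 units/mL) DMEM with 10% FBS and were treated one day after seeding at 0.5% DMSO. GI50 values come from four-parameter nonlinear regression.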

A short description of test [3]: Cellular growth inhibition assay, T-Rex 293 SC cells with doxycycline (CellTiter-Glo, 72 hours). To be noted: T-Rex 293 SC cells with doxycycline (increased progesterone receptor isoform B). Format: cell-based. On the procedure:
as §1, §2, §3, §4, §5, §6

Test [4] relates to T-Rex 293 cell line SC3 cells having increased expression of androgen receptor protein due to exposure to doxycycline. The test can be described thus: Cellular growth inhibition assay, T-Rex 293 SC3 cells with doxycycline (CellTiter-Glo, 72 hours). Type of test: cell-based. Particulars: 72 h, T-Rex 293 SC3 cells with increased androgen receptor expression due to doxycycline (10 ng/mL). Summed up:
as §7

Consider `CCNC(=O)C[C@@H]1N=C(c2ccc(OCCC3CCN(c4ccc(C(=O)N[C@H]5CC[C@H](Oc6ccc(C#N)c(Cl)c6)CC5)nn4)CC3)cc2)c2c(sc(C)c2C)-n2c(C)nnc21` [I-13], for which the GI50 (in test [1]; in test [2]; with VCaP cells; with T47D cells; in test [3]; in test [4]) was less than 500 nM throughout.

As for `CCNC(=O)C[C@@H]1N=C(c2ccc(OCCN3CCN(c4ccc(C(=O)N[C@H]5CC[C@H](Oc6ccc(C#N)c(Cl)c6)CC5)nn4)CC3)cc2)c2c(sc(C)c2C)-n2c(C)nnc21` [I-25], the GI50 in test [1] was 500 to 1500 nM; in test [2], 500 to 1500 nM; in the test with VCaP cells it was less than 500 nM; with T47D cells, less than 500 nM; in test [3], less than 500 nM; in test [4], less than 500 nM.

In the case of `CCNC(=O)C[C@@H]1N=C(c2ccc(OC3CCN(c4ccc(C(=O)N[C@H]5CC[C@H](Oc6ccc(C#N)c(Cl)c6)CC5)nn4)CC3)cc2)c2c(sc(C)c2C)-n2c(C)nnc21` [I-26], the GI50 was less than 500 nM in test [1]; 500 to 1500 nM in test [2]; less than 500 nM with VCaP cells; less than 500 nM in the test on T47D cells; less than 500 nM in test [3]; less than 500 nM in test [4].

On to `CCNC(=O)C[C@@H]1N=C(c2ccc(N3CCN(CC4CCN(c5ccc(C(=O)N[C@H]6CC[C@H](Oc7ccc(C#N)c(Cl)c7)CC6)nn5)CC4)CC3)cc2)c2c(sc(C)c2C)-n2c(C)nnc21` [I-28], for which the GI50 in test [1] is less than 500 nM; in test [2], 500 to 1500 nM; in the test with VCaP cells, less than 500 nM; with T47D cells, less than 500 nM; in test [3], less than 500 nM; in test [4], less than 500 nM.

Take `CCNC(=O)C[C@@H]1N=C(c2ccc(C3CCC(OC4CCN(c5ccc(C(=O)N[C@H]6CC[C@H](Oc7ccc(C#N)c(Cl)c7)CC6)nn5)CC4)C3)cc2)c2c(sc(C)c2C)-n2c(C)nnc21` (stereo partly drawn) [I-67]: the GI50 (in test [1]; in test [2]; in the test with VCaP cells; in the test on T47D cells; in test [3]; in test [4]) was less than 500 nM each time.

As to `Cc1sc2c(c1C)C(c1ccc(CCN3CCCN(c4ccc(C(=O)N[C@H]5CC[C@H](Oc6ccc(C#N)c(Cl)c6)CC5)nn4)CC3)cc1)=N[C@@H](Cc1ncco1)c1nnc(C)n1-2` [I-128], the GI50 (in test [1]; in test [2]; in the test with VCaP cells; in the test on T47D cells; in test [3]; in test [4]) was less than 500 nM throughout.

For `Cc1sc2c(c1C)C(c1ccc(CCCN3[C@H](C)CN(c4ccc(C(=O)N[C@H]5CC[C@H](Oc6ccc(C#N)c(Cl)c6)CC5)nn4)C[C@@H]3C)cc1)=N[C@@H](Cc1ncco1)c1nnc(C)n1-2` [I-129], the GI50 (in test [1]; in test [2]; with VCaP cells; in the test on T47D cells; in test [3]; in test [4]) was less than 500 nM each time.

For `Cc1sc2c(c1C)C(c1ccc(CCCN3[C@@H](C)CN(c4ccc(C(=O)N[C@H]5CC[C@H](Oc6ccc(C#N)c(Cl)c6)CC5)nn4)C[C@@H]3C)cc1)=N[C@@H](Cc1ncco1)c1nnc(C)n1-2` [I-130], the GI50 (in test [1]; in test [2]; in the test on VCaP cells; in the test with T47D cells; in test [3]; in test [4]) was less than 500 nM each time.

For `Cc1sc2c(c1C)C(c1ccc(C3C[C@@H]3CC3CCCN(c4ccc(C(=O)N[C@H]5CC[C@H](Oc6ccc(C#N)c(Cl)c6)CC5)nn4)C3)cc1)=N[C@@H](Cc1ncco1)c1nnc(C)n1-2` (stereo partly drawn) [I-203], the GI50 in test [1] was 500 to 1500 nM; in test [2] it was 500 to 1500 nM; with VCaP cells it was 1500 to 3000 nM; with T47D cells it was more than 3000 nM; in test [3], 500 to 1500 nM; in test [4] it was less than 500 nM.

On to `Cc1sc2c(c1C)C(c1ccc(C3C[C@H]3CC3CCCN(c4ccc(C(=O)N[C@H]5CC[C@H](Oc6ccc(C#N)c(Cl)c6)CC5)nn4)C3)cc1)=N[C@@H](Cc1ncco1)c1nnc(C)n1-2` (stereo partly drawn) [I-204], for which the GI50 (in test [1]; in test [2]; with VCaP cells; with T47D cells; in test [3]; in test [4]) was less than 500 nM each time.

On to `Cc1sc2c(c1C)C(c1ccc(C3CC3CC3CCCN(c4ccc(C(=O)N[C@H]5CC[C@H](Oc6ccc(C#N)c(Cl)c6)CC5)nn4)C3)cc1)=N[C@@H](Cc1ncco1)c1nnc(C)n1-2` (stereo partly drawn) [I-205], for which the GI50 (in test [1]; in test [2]; in the test with VCaP cells; in the test on T47D cells; in test [3]; in test [4]) was less than 500 nM each time.

As for `Cc1sc2c(c1C)C(c1ccc(CCC3CC4(CCCN(c5ccc(C(=O)N[C@H]6CC[C@H](Oc7ccc(C#N)c(Cl)c7)CC6)nn5)C4)C3)cc1)=N[C@@H](Cc1ncco1)c1nnc(C)n1-2` (stereo partly drawn) [I-208], the GI50 (in test [1]; in test [2]; with VCaP cells; in the test with T47D cells; in test [3]; in test [4]) was less than 500 nM throughout.

As a reminder, the GI50 is the concentration at which growth is held to half of that of the control.
